Laboratory results: PMC6853232, “Discovery and evaluation of novel synthetic 5-alkyl-4-oxo-4,5-dihydro-[1,2,4]triazolo[4,3-a]quinoxaline-1-carbox-amide derivatives as anti-inflammatory agents” (Journal of Enzyme Inhibition and Medicinal Chemistry, 2019)
Marks after values point to notes of the source that are not given here.

System: RAW264.7 cells
Test: MTT assay for cell viability
Format: cell-based, mouse
Conditions: LPS 1 μg/mL
Experimental: The RAW 264.7 mouse macrophage cell line was obtained from the China Cell Line Bank (Beijing, China). Cells were cultured in complete medium (DMEM supplemented with 10% heat-inactivated FBS, 3 mM glutamine and antibiotics (100 U/mL penicillin and 100 U/mL streptomycin)) at 37 °C in a humidified incubator containing 5% CO2 and 95% air. […]
Cell viability studies induced by synthesised compounds were evaluated by 3-(4,5-dimethylthiazol-2-yl)-2,5-diphenyltetrazolium bromide (MTT) assay. RAW264.7 macrophages were seeded in 96-well plates at a density of 5 × 10^5 cells/mL in complete medium and incubated for 24 h (100 µL/well). Then the cells were treated with different concentrations of synthesised compounds for 24 h. 150 µL MTT (5 g/L in PBS) was added to each well and the cells were further incubated for 4 h. The supernatant was removed and the cells were lysed with 150 µL/well DMSO. The optical density was measured at 570 nm on a microplate reader (Thermo Scientific, MA, USA).

lipopolysaccharide [LPS, reference compound]
Cell viability (%): 98.60 ± 2.12^a %
